US10000501B2, “Inhibitors of HIF prolyl hydroxylase” (MERCK SHARP & DOHME CORP., priority 2014, dated 2018)

Each compound was assayed against T1, human HIF-PHD2 (Homo sapiens, UniProt Q9GZT9) (assay: HIF-PHD2 inhibition assay (hydroxylation of HIF-1α peptide, time resolved fluorescence)). Settings: FLAG-tagged full length PHD2; 0.2 μM 2-oxoglutarate, 0.5 μM HIF-1α peptide.
T1 construct: FLAG-tagged full length PHD2 expressed in and purified from baculovirus-infected Sf9 cells; FLAG; made in house; host or cells: baculovirus-infected Sf9 cells
T1 sequence (Q9GZT9 whole entry): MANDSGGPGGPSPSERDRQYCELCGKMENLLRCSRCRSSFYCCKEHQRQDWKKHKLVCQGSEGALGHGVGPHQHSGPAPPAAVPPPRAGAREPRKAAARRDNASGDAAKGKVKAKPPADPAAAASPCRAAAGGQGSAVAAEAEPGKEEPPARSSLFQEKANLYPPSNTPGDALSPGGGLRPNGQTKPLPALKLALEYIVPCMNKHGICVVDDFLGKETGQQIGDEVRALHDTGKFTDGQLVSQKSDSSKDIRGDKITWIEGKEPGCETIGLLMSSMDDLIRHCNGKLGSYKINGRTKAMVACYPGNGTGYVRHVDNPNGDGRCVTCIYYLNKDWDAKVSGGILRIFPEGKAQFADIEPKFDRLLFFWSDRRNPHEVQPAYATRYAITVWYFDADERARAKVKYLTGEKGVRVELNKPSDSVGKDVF
Type: biochemical
Experimental: To each well of a 384-well plate, 1 μL of test compounds in DMSO (final concentration ranging from 0.3 nM to 10 uM) were added into 20 μl of assay buffer (50 mM Tris pH 7.4/0.01% Tween-20/0.1 mg/ml bovine serum albumin/10 μM ferrous sulfate/1 mM sodium ascorbate/20 μg/ml catalase) containing 0.15 μg/ml FLAG-tagged full length PHD2 expressed in and purified from baculovirus-infected Sf9 cells. […] Purif.
With `O=C(O)CNC(=O)c1c(O)c2c(n(Cc3ncc(C(F)(F)F)cn3)c1=O)CCOC2` [Example 23, 2-(4-hydroxy-2-oxo-1-((5-(trifluoromethyl)pyrimidin-2-yl)methyl)-2,5,7,8-tetrahydro-1H-pyrano[4,3-b]pyridine-3-carboxamido)acetic acid] the IC50 was 44.5 nM.
For `Cc1cc(Cn2c3c(c(O)c(C(=O)NCC(=O)O)c2=O)COCC3)ccc1C#N` [Example 28, 2-(1-(4-Cyano-3-methylbenzyl)-4-hydroxy-2-oxo-2,5,7,8-tetrahydro-1H-pyrano[4,3-b]pyridine-3-carboxamido)acetic acid], the IC50 was 14.5 nM.
`CN1CCc2c(c(O)c(C(=O)NCC(=O)O)c(=O)n2Cc2ccc(C(F)(F)F)cc2)C1` [Example 81, 2-(4-Hydroxy-6-methyl-2-oxo-1-(4-(trifluoromethyl)benzyl)-1,2,5,6,7,8-hexahydro-1,6-naphthyridine-3-carboxamido)acetic acid] gave an IC50 of 46.1 nM.
For `O=C(O)CNC(=O)c1c(O)c2c(n(Cc3cncs3)c1=O)CCOC2` [Example 31, 2-(4-Hydroxy-2-oxo-1-(thiazol-5-ylmethyl)-2,5,7,8-tetrahydro-1H-pyrano[4,3-b]pyridine-3-carboxamido)acetic acid], the IC50 was 32.8 nM.
Compound `CC(C)(O)c1ccc(Cn2c3c(c(O)c(C(=O)NCC(=O)O)c2=O)CCOC3)cc1` [Example 63, 2-(4-Hydroxy-1-(4-(2-hydroxypropan-2-yl)benzyl)-2-oxo-2,5,6,8-tetrahydro-1H-pyrano[3,4-b]pyridine-3-carboxamido)acetic acid] has an IC50 of 67.4 nM.
`O=C(O)CNC(=O)c1c(O)c2c(n(Cc3ccc(C(F)(F)F)cc3)c1=O)CN(Cc1ccccc1)CC2` [Example 80, 2-(7-Benzyl-4-hydroxy-2-oxo-1-(4-(trifluoromethyl)benzyl)-1,2,5,6,7,8-hexahydro-1,7-naphthyridine-3-carboxamido)acetic acid] showed an IC50 of 32 nM.
Work on `O=C(O)CNC(=O)c1c(O)c2c([nH]c1=O)CCOC2` [Example 4, 2-(4-Hydroxy-2-oxo-2,5,7,8-tetrahydro-1H-pyrano[4,3-b]pyridine-3-carboxamido)acetic acid] yielded an IC50 of 41.8 nM.
`O=C(O)CNC(=O)c1c(O)c2c(n(Cc3ccccc3Cl)c1=O)COCC2` [Example 58, 2-(1-(2-chlorobenzyl)-4-hydroxy-2-oxo-2,5,6,8-tetrahydro-1H-pyrano[3,4-b]pyridine-3-carboxamido)acetic acid] showed an IC50 of 25.5 nM.
`O=C(O)CNC(=O)c1c(O)c2c(n(Cc3ccc(C(F)(F)F)cc3)c1=O)NCCC2` [Example 78, 2-(4-Hydroxy-2-oxo-1-(4-(trifluoromethyl)benzyl)-1,2,5,6,7,8-hexahydro-1,8-naphthyridine-3-carboxamido)acetic acid] gave an IC50 of 70 nM.
`O=C(O)CNC(=O)c1c(O)c2c(n(Cc3ccc(OC(F)(F)F)cc3)c1=O)COCC2` [Example 52, 2-(4-hydroxy-2-oxo-1-(4-(trifluoromethoxy)benzyl)-2,5,6,8-tetrahydro-1H-pyrano[3,4-b]pyridine-3-carboxamido)acetic acid] showed an IC50 of 24.1 nM.
`COc1ccc(Cn2c3c(c(O)c(C(=O)NCC(=O)O)c2=O)CCOC3)cc1` [Example 51, 2-(4-hydroxy-1-(4-methoxybenzyl)-2-oxo-2,5,6,8-tetrahydro-1H-pyrano[3,4-b]pyridine-3-carboxamido)acetic acid] showed an IC50 of 30.2 nM.
For `O=C(O)CNC(=O)c1c(O)c2c(n(Cc3ccc(C(F)(F)F)nc3)c1=O)COCC2` [Example 42, 2-(4-hydroxy-2-oxo-1-((6-(trifluoromethyl)pyridin-3-yl)methyl)-2,5,6,8-tetrahydro-1H-pyrano[3,4-b]pyridine-3-carboxamido)acetic acid], the IC50 was 19.9 nM.
With `CN1Cc2c(c(O)c(C(=O)NCC(=O)O)c(=O)n2Cc2ccc(F)cc2F)CC1=O` [Example 72, 2-(1-(2,4-difluorobenzyl)-4-hydroxy-7-methyl-2,6-dioxo-1,2,5,6,7,8-hexahydro-1,7-naphthyridine-3-carboxamido)acetic acid] the IC50 was 28.7 nM.
Work on `O=C(O)CNC(=O)c1c(O)c2c(n(Cc3ccc(OC(F)F)cc3)c1=O)CCOC2` [Example 8, 2-(1-(4-(difluoromethxoy)benzyl)-4-hydroxy-2-oxo-2,5,7,8-tetrahydro-1H-pyrano[4,3-b]pyridine-3-carboxamido)acetic acid] yielded an IC50 of 13.4 nM.
For `CN1Cc2c(c(O)c(C(=O)NCC(=O)O)c(=O)n2Cc2ccccc2Cl)CC1=O` [Example 76, 2-(1-(2-chlorobenzyl)-4-hydroxy-7-methyl-2,6-dioxo-1,2,5,6,7,8-hexahydro-1,7-naphthyridine-3-carboxamido)acetic acid], the IC50 was 10.6 nM.
`N#Cc1ccc(Cn2c3c(c(O)c(C(=O)NCC(=O)O)c2=O)CCOC3)cc1F` [Example 61, 2-(1-(4-cyano-3-fluorobenzyl)-4-hydroxy-2-oxo-2,5,6,8-tetrahydro-1H-pyrano[3,4-b]pyridine-3-carboxamido)acetic acid] was tested, and the IC50 was 22.6 nM.
`N#Cc1ccc(Cn2c3c(c(O)c(C(=O)NCC(=O)O)c2=O)COCC3)cc1` [Example 5, 2-(1-(4-Cyanobenzyl)-4-hydroxy-2-oxo-2,5,7,8-tetrahydro-1H-pyrano[4,3-b]pyridine-3-carboxamido)acetic acid] showed an IC50 of 13.9 nM.
For `COc1ccc(Cn2c3c(c(O)c(C(=O)NCC(=O)O)c2=O)COCC3)cn1` [Example 30, 2-(4-Hydroxy-1-((6-methoxypyridin-3-yl)methyl)-2-oxo-2,5,7,8-tetrahydro-1H-pyrano[4,3-b]pyridine-3-carboxamido)acetic acid], the IC50 was 17.4 nM.
`O=C(O)CNC(=O)c1c(O)c2c(n(Cc3csc(C(F)(F)F)n3)c1=O)CCOC2` [Example 35, 2-(4-Hydroxy-2-oxo-1-((2-(trifluoromethyl)thiazol-4-yl)methyl)-2,5,7,8-tetrahydro-1H-pyrano[4,3-b]pyridine-3-carboxamido)acetic acid] gave an IC50 of 15.1 nM.
In the case of `O=C(O)CNC(=O)c1c(O)c2c(n(Cc3ncc(C(F)(F)F)cn3)c1=O)COCC2` [Example 46, 2-(4-hydroxy-2-oxo-1-((5-(trifluoromethyl)pyrimidin-2-yl)methyl)-2,5,6,8-tetrahydro-1H-pyrano[3,4-b]pyridine-3-carboxamido)acetic acid], the IC50 is reported as 90.1 nM.
`O=C(O)CNC(=O)c1c(O)c2c(n(Cc3cc(F)c(F)cc3F)c1=O)CCOC2` [Example 24, 2-(4-Hydroxy-2-oxo-1-(2,4,5-trifluorobenzyl)-2,5,7,8-tetrahydro-1H-pyrano[4,3-b]pyridine-3-carboxamido)acetic acid] gave an IC50 of 16.8 nM.
Compound `O=C(O)CNC(=O)c1c(O)c2c(n(CC3CCCCC3)c1=O)CCOC2` [Example 20, 2-(1-(cyclohexylmethyl)-4-hydroxy-2-oxo-2,5,7,8-tetrahydro-1H-pyrano[4,3-b]pyridine-3-carboxamido)acetic acid] has an IC50 of 76 nM.
`NC(=O)c1ccc(Cn2c3c(c(O)c(C(=O)NCC(=O)O)c2=O)COCC3)cc1` [Example 34, 2-(1-(4-Carbamoylbenzyl)-4-hydroxy-2-oxo-2,5,7,8-tetrahydro-1H-pyrano[4,3-b]pyridine-3-carboxamido)acetic acid] showed an IC50 of 29.3 nM.
With `O=C(O)CNC(=O)c1c(O)c2c(n(Cc3ccccn3)c1=O)COCC2` [Example 59, 2-(4-hydroxy-2-oxo-1-(pyridin-2-ylmethyl)-2,5,6,8-tetrahydro-1H-pyrano[3,4-b]pyridine-3-carboxamido)acetic acid] the IC50 was 44.2 nM.
`Cn1c2c(c(O)c(C(=O)NCC(=O)O)c1=O)COCC2` [Example 22, 2-(4-hydroxy-1-methyl-2-oxo-2,5,7,8-tetrahydro-1H-pyrano[4,3-b]pyridine-3-carboxamido)acetic acid] was tested, and the IC50 was 56.1 nM.
In the case of `O=C(O)CNC(=O)c1c(O)c2c(n(Cc3ccncc3)c1=O)COCC2` [Example 60, 2-(4-hydroxy-2-oxo-1-(pyridin-4-ylmethyl)-2,5,6,8-tetrahydro-1H-pyrano[3,4-b]pyridine-3-carboxamido)acetic acid], the IC50 is reported as 30.4 nM.
`O=C(O)CNC(=O)c1c(O)c2c(n(Cc3ccc(Cl)cc3F)c1=O)CCOC2` [Example 18, 2-(1-(4-chloro-2-fluorobenzyl)-4-hydroxy-2-oxo-2,5,7,8-tetrahydro-1H-pyrano[4,3-b]pyridine-3-carboxamid)acetic acid] gave an IC50 of 19.2 nM.
`N#Cc1ccc(Cn2c3c(c(O)c(C(=O)NCC(=O)O)c2=O)CCOC3)cc1` [Example 40, 2-(1-(4-cyanobenzyl)-4-hydroxy-2-oxo-2,5,6,8-tetrahydro-1H-pyrano[3,4-b]pyridine-3-carboxamido)acetic acid] was tested, and the IC50 was 21.8 nM.
Compound `O=C(O)CNC(=O)c1c(O)c2c(n(Cc3ccc(F)cc3)c1=O)COCC2` [Example 53, 2-(1-(4-fluorobenzyl)-4-hydroxy-2-oxo-2,5,6,8-tetrahydro-1H-pyrano[3,4-b]pyridine-3-carboxamido)acetic acid] has an IC50 of 29.3 nM.
`O=C(O)CNC(=O)c1c(O)c2c(n(Cc3ccc(F)c(F)c3)c1=O)CCOC2` [Example 15, 2-(1-(3,4-difluorobenzyl)-4-hydroxy-2-oxo-2,5,7,8-tetrahydro-1H-pyrano[4,3-b]pyridine-3-carboxamido)acetic acid] showed an IC50 of 14.7 nM.
`CC(C)c1ccc(Cn2c3c(c(O)c(C(=O)NCC(=O)O)c2=O)CCOC3)cc1` [Example 39, 2-(4-hydroxy-1-(4-isopropylbenzyl)-2-oxo-2,5,6,8-tetrahydro-1H-pyrano[3,4-b]pyridine-3-carboxamido)acetic acid] was tested, and the IC50 was 42.2 nM.
`CC(C)(O)c1ccc(Cn2c3c(c(O)c(C(=O)NCC(=O)O)c2=O)COCC3)cc1` [Example 33, 2-(4-Hydroxy-1-(4-(2-hydroxypropan-2-yl)benzyl)-2-oxo-2,5,7,8-tetrahydro-1H-pyrano[4,3-b]pyridine-3-carboxamido)acetic acid] showed an IC50 of 49.9 nM.
With `CC(C)c1ccc(Cn2c3c(c(O)c(C(=O)NCC(=O)O)c2=O)COCC3)cc1` [Example 12, 2-(4-hydroxy-1-(4-isopropylbenzyl)-2-oxo-2,5,7,8-tetrahydro-1H-pyrano[4,3-b]pyridine-3-carboxamido)acetic acid] the IC50 was 12.5 nM.
